Molecular target: T1, His tagged PTPN2 (TC45) protein (Homo sapiens, UniProt P17706)
T1 construct: made in house
T1 sequence (P17706 with tags, fused parts or gaps isoform P17706-2): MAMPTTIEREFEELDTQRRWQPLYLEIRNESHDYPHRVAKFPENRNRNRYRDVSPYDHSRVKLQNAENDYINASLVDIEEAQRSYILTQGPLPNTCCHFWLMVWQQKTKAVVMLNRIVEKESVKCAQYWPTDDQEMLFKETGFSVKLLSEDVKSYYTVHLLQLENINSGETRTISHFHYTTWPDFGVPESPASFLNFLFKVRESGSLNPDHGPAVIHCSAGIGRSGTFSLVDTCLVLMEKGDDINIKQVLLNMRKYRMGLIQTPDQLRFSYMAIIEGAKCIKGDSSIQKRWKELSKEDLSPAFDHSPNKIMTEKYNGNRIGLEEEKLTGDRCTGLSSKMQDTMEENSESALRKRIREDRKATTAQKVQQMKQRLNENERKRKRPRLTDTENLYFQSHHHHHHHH
Test: Mobility shift assay (MSA) for potency of PTPN2 inhibitors
Assay type: biochemical
Conditions: read-out: PTPN2 MSA IC50
Method: Compound activity was determined using in house His tagged PTPN2 (TC45) protein (SEQ ID NO: 1) in an in vitro enzymatic reaction. The enzymatic assay used to determine activity was a mobility shift assay using a LabChip EZ Reader by Caliper Life Sciences. The enzymatic reaction was carried out in assay buffer (50 mM HEPES pH 7.5, 1 mM EGTA, 10 mM EDTA, 0.01% Tween® 20, and 2 mM DTT). The compounds were dispensed on a white 384 well ProxiPlate™ (PerkinElmer Catalog #6008289) plate using the Labcyte Echo at varying concentrations (12 point, 1:3 dilution). The enzyme (at 0.5 nM) was incubated with compound for 10 minutes at room temperature. Then the substrate (phosphorylated insulin receptor probe sequence: ((OG488)-(NH—CH2—CH2—O—CH2—CH2—O—CH2—CO)-T-R-D-I-(PY)-E-T-D-Y-Y-R-K-K-NH2) (SEQ ID NO: 2) was added at […] to the plates and incubated for another 10 minutes at room temperature. Finally, a quench solution (water and 4-bromo-3-(2-oxo-2-propoxyethoxy)-5-(3-{[1-(phenylmethanesulfonyl)piperidin-4-yl]amino}phenyl)thiophene-2-carboxylic acid) was added to the plates, which were then run on the EZ Reader (excitation 488 nm, emission 530 nm) to measure % conversion (the amount of phosphorylated substrate which was de-phosphorylated by PTPN2). […] The % inhibition was then used to calculate the IC50 values.

`O=C1CN(c2c(O)cc3ccc(C4=CCN(S(=O)(=O)CCC(F)(F)F)C4)cc3c2F)S(=O)(=O)N1` [Compound 287, 5-{1-fluoro-3-hydroxy-7-[1-(3,3,3-trifluoropropane-1-sulfonyl)-2,5-dihydro-1H-pyrrol-3-yl]naphthalen-2-yl}-1λ^6,2,5-thiadiazolidine-1,1,3-trione] and `CCCCS(=O)(=O)N1CC=C(c2ccc3cc(O)c(N4CC(=O)NS4(=O)=O)c(F)c3c2)C1` [Compound 291, 5-{7-[1-(butane-1-sulfonyl)-2,5-dihydro-1H-pyrrol-3-yl]-1-fluoro-3-hydroxynaphthalen-2-yl}-1λ^6,2,5-thiadiazolidine-1,1,3-trione] cannot be ordered by IC50: under 0.001 µM for the first, under 0.001 µM for the second.

`O=C1CN(c2c(O)cc3ccc(C4=CCN(S(=O)(=O)c5ccoc5)C4)cc3c2F)S(=O)(=O)N1` [Compound 312, 5-{1-fluoro-7-[1-(furan-3-sulfonyl)-2,5-dihydro-1H-pyrrol-3-yl]-3-hydroxynaphthalen-2-yl}-1λ^6,2,5-thiadiazolidine-1,1,3-trione] and `O=C1CN(c2c(O)cc3ccc(C4=CCN(S(=O)(=O)c5ccccc5)C4)cc3c2F)S(=O)(=O)N1` [Compound 315, 5-{7-[1-(benzenesulfonyl)-2,5-dihydro-1H-pyrrol-3-yl]-1-fluoro-3-hydroxynaphthalen-2-yl}-1λ^6,2,5-thiadiazolidine-1,1,3-trione] cannot be ordered by IC50: under 0.001 µM for the first, under 0.001 µM for the second.

`O=C1CN(c2c(O)cc3ccc(C4=CCN(CC(F)(F)F)CC4)cc3c2F)S(=O)(=O)N1` [Compound 275, 5-{1-fluoro-3-hydroxy-7-[1-(2,2,2-trifluoroethyl)-1,2,3,6-tetrahydropyridin-4-yl]naphthalen-2-yl}-1λ^6,2,5-thiadiazolidine-1,1,3-trione] and `O=C1CN(c2c(O)cc3ccc(CC(F)F)cc3c2F)S(=O)(=O)N1` [Compound 196, 5-[7-(2,2-difluoroethyl)-1-fluoro-3-hydroxynaphthalen-2-yl]-1λ^6,2,5-thiadiazolidine-1,1,3-trione] fall in the same range of IC50: 0.001 to 0.01 µM for the first, 0.001 to 0.01 µM for the second.

`COCC1(CCOc2ccc3cc(O)c(N4CC(=O)NS4(=O)=O)c(F)c3c2)CC1` [Compound 160, 5-(1-fluoro-3-hydroxy-7-{2-[1-(methoxymethyl)cyclopropyl]ethoxy}naphthalen-2-yl)-1λ^6,2,5-thiadiazolidine-1,1,3-trione] and `COCCNCCOc1ccc2cc(O)c(N3CC(=O)NS3(=O)=O)c(F)c2c1` [Compound 138, 5-(1-fluoro-3-hydroxy-7-{2-[(2-methoxyethyl)amino]ethoxy}naphthalen-2-yl)-1λ^6,2,5-thiadiazolidine-1,1,3-trione] fall in the same range of IC50: 0.001 to 0.01 µM for the first, 0.001 to 0.01 µM for the second.

`CNCCOc1ccc2cc(O)c(N3CC(=O)NS3(=O)=O)c(F)c2c1` [Compound 143, 5-{1-fluoro-3-hydroxy-7-[2-(methylamino)ethoxy]naphthalen-2-yl}-1λ^6,2,5-thiadiazolidine-1,1,3-trione] and `C[C@@H](O)CCOc1ccc2cc(O)c(N3CC(=O)NS3(=O)=O)c(F)c2c1` [Compound 149, 5-{1-fluoro-3-hydroxy-7-[(3R)-3-hydroxybutoxy]naphthalen-2-yl}-1λ^6,2,5-thiadiazolidine-1,1,3-trione] fall in the same range of IC50: 0.001 to 0.01 µM for the first, 0.001 to 0.01 µM for the second.

`O=C(CNc1ccc2cc(O)c(N3CC(=O)NS3(=O)=O)c(F)c2c1)NCCC1CC1` [Compound 268, N-(2-cyclopropylethyl)-2-{[8-fluoro-6-hydroxy-7-(1,1,4-trioxo-1λ^6,2,5-thiadiazolidin-2-yl)naphthalen-2-yl]amino}acetamide] and `O=C1CN(c2c(O)cc3ccc(C4CC4)cc3c2F)S(=O)(=O)N1` [Compound 236, 5-(7-cyclopropyl-1-fluoro-3-hydroxynaphthalen-2-yl)-1λ^6,2,5-thiadiazolidine-1,1,3-trione] fall in the same range of IC50: 0.001 to 0.01 µM for the first, 0.001 to 0.01 µM for the second.

First: N#Cc1c[nH]c(-c2ccc3cc(O)c(N4CC(=O)NS4(=O)=O)c(F)c3c2)n1 [Compound 321, 2-[8-fluoro-6-hydroxy-7-(1,1,4-trioxo-1λ^6,2,5-thiadiazolidin-2-yl)naphthalen-2-yl]-1H-imidazole-4-carbonitrile]
Second: Cc1c[nH]c(-c2ccc3cc(O)c(N4CC(=O)NS4(=O)=O)c(F)c3c2)n1 [Compound 225, 5-[1-fluoro-3-hydroxy-7-(4-methyl-1H-imidazol-2-yl)naphthalen-2-yl]-1λ^6,2,5-thiadiazolidine-1,1,3-trione]
The IC50 of the first is lower: 0.001 to 0.01 µM for the first, 0.01 to 0.1 µM for the second. The first is the more potent here.

`COc1ccc2cc(O)c(N3CC(=O)NS3(=O)=O)c(F)c2c1Cl` [Compound 234, 5-(8-chloro-1-fluoro-3-hydroxy-7-methoxynaphthalen-2-yl)-1λ^6,2,5-thiadiazolidine-1,1,3-trione] and `COCc1ccc2cc(O)c(N3CC(=O)NS3(=O)=O)c(F)c2c1` [Compound 229, 5-[1-fluoro-3-hydroxy-7-(methoxymethyl)naphthalen-2-yl]-1λ^6,2,5-thiadiazolidine-1,1,3-trione] fall in the same range of IC50: 0.01 to 0.1 µM for the first, 0.01 to 0.1 µM for the second.

First: Nc1cccc(CS(=O)(=O)N2CC=C(c3ccc4cc(O)c(N5CC(=O)NS5(=O)=O)c(F)c4c3)C2)c1 [Compound 194, 5-(7-{1-[(3-aminophenyl)methanesulfonyl]-2,5-dihydro-1H-pyrrol-3-yl}-1-fluoro-3-hydroxynaphthalen-2-yl)-1λ^6,2,5-thiadiazolidine-1,1,3-trione]
Second: O=C1CN(c2c(O)cc3ccc(CC4CNC4)cc3c2F)S(=O)(=O)N1 [Compound 267, 5-{7-[(azetidin-3-yl)methyl]-1-fluoro-3-hydroxynaphthalen-2-yl}-1λ^6,2,5-thiadiazolidine-1,1,3-trione]
The IC50 of the first is lower: under 0.001 µM for the first, 0.01 to 0.1 µM for the second.

`N#CCc1ccc2cc(O)c(N3CC(=O)NS3(=O)=O)c(F)c2c1` [Compound 228, [8-fluoro-6-hydroxy-7-(1,1,4-trioxo-1λ^6,2,5-thiadiazolidin-2-yl)naphthalen-2-yl]acetonitrile] and `CNCCCc1ccc2cc(O)c(N3CC(=O)NS3(=O)=O)c(F)c2c1` [Compound 139, 5-{1-fluoro-3-hydroxy-7-[3-(methylamino)propyl]naphthalen-2-yl}-1λ^6,2,5-thiadiazolidine-1,1,3-trione] fall in the same range of IC50: 0.001 to 0.01 µM for the first, 0.001 to 0.01 µM for the second.

`CC(C)OCCNc1ccc2cc(O)c(N3CC(=O)NS3(=O)=O)c(F)c2c1` [Compound 172, 5-[1-fluoro-3-hydroxy-7-({2-[(propan-2-yl)oxy]ethyl}amino)naphthalen-2-yl]-1λ^6,2,5-thiadiazolidine-1,1,3-trione] and `CNC(=O)CCCOc1ccc2cc(O)c(N3CC(=O)NS3(=O)=O)c(F)c2c1` [Compound 269, 4-{[8-fluoro-6-hydroxy-7-(1,1,4-trioxo-1λ^6,2,5-thiadiazolidin-2-yl)naphthalen-2-yl]oxy}-N-methylbutanamide] fall in the same range of IC50: 0.001 to 0.01 µM for the first, 0.001 to 0.01 µM for the second.

`O=C1CN(c2c(O)c(Br)c3ccc(-c4ccn(S(=O)(=O)C5CC5)c4)cc3c2F)S(=O)(=O)N1` [Compound 231B, 5-{4-bromo-7-[1-(cyclopropanesulfonyl)-1H-pyrrol-3-yl]-1-fluoro-3-hydroxynaphthalen-2-yl}-1λ^6,2,5-thiadiazolidine-1,1,3-trione] and `O=C1CN(c2c(O)cc3ccc(C4CCCNC4)cc3c2F)S(=O)(=O)N1` (centres unmarked) [Compound 191, 5-[1-fluoro-3-hydroxy-7-(piperidin-3-yl)naphthalen-2-yl]-1λ^6,2,5-thiadiazolidine-1,1,3-trione] fall in the same range of IC50: 0.001 to 0.01 µM for the first, 0.001 to 0.01 µM for the second.

`CCP(=O)(CC)CCCOc1ccc2cc(O)c(N3CC(=O)NS3(=O)=O)c(F)c2c1` [Compound 146, 5-{7-[3-(diethylphosphoryl)propoxy]-1-fluoro-3-hydroxynaphthalen-2-yl}-1λ^6,2,5-thiadiazolidine-1,1,3-trione] and `O=C1CN(c2c(O)cc3ccc(OCCn4cccn4)cc3c2F)S(=O)(=O)N1` [Compound 188, 5-{1-fluoro-3-hydroxy-7-[2-(1H-pyrazol-1-yl)ethoxy]naphthalen-2-yl}-1λ^6,2,5-thiadiazolidine-1,1,3-trione] fall in the same range of IC50: 0.001 to 0.01 µM for the first, 0.001 to 0.01 µM for the second.

First: C=C(c1ccc2cc(O)c(N3CC(=O)NS3(=O)=O)c(F)c2c1)c1c(C)c(C)c(C)c(C)c1C [Compound 241, 5-{1-fluoro-3-hydroxy-7-[1-(pentamethylphenyl)ethenyl]naphthalen-2-yl}-1λ^6,2,5-thiadiazolidine-1,1,3-trione]
Second: CC1(COc2ccc3cc(O)c(N4CC(=O)NS4(=O)=O)c(F)c3c2)COC1 [Compound 230, 5-{1-fluoro-3-hydroxy-7-[(3-methyloxetan-3-yl)methoxy]naphthalen-2-yl}-1λ^6,2,5-thiadiazolidine-1,1,3-trione]
The IC50 of the first is higher: over 0.1 µM for the first, 0.001 to 0.01 µM for the second.

With `O=C1CN(c2c(O)cc3ccc(OCCC4CCCCC4)cc3c2F)S(=O)(=O)N1` [Compound 320, 5-[7-(2-cyclohexylethoxy)-1-fluoro-3-hydroxynaphthalen-2-yl]-1λ^6,2,5-thiadiazolidine-1,1,3-trione] the IC50 was under 0.001 µM.
